Assay results from patent publication US20030180735A1, “Screening method” (priority 1999, published 2003).
Entries after “also recorded” stand apart in the source; their conditions may differ.

Legend:
Format in all cases: cell-based
[1] = system: HeLa cells; settings: agent plus cisplatin 10 μg/ml, overnight, crystal violet
Method: (§1) In our system, cells are cultured in 96 well plates in 100 μl of culture medium and are treated in ways known to induce apoptosis. Following an indicated period of time, 10 μl MTT stock solution (5 mg/mi) is added to each culture being assayed and incubated at 37° C. for 4 h. At the end of the incubation period the converted dye is solubilised with acidic-isopropanol (0.04N HCL. Absorbance of converted dye is measured at a wavelength of 570 nm.
The following example describes a method to analyse viability of adherent cells, such as HeLa, using chemical stain Crystal Violet. Adherent cells are cultured in the presence of known agents to induce/ modulate the apoptotic process. After a suitable period of time, supernatants are removed by inverting and flicking the plate. Wells are washed twice with PBS and remaining adherent cells are fixed with 100% EtOH and air-dried. To each well is added 100 μl of 1% aqueous Crystal Violet Solution (Sigma). Plates are then incubated at room temperature (RT) for 5 min before washing in tap water. Wells are solubilised in 33% acetic acid and optical density is measured at 570 nm using a plate reader.
HeLa cells are plated in full culture medium at a concentration of 2×10^4 cells/well of 96 well plate. […] Cells are cultured overnight at 37° C. before analysing for apoptosis using either MTT or crystal violet.
HeLa cells are plated in full culture medium at a concentration of 2×10^4 cells/well of 96 well plate. […] Cells are cultured overnight at 37° C. before analysing for apoptosis using crystal violet.
HeLa cells are plated into 96 well plate at a concentration of 2×10^4/well and allowed to adhere for 4 hours Culture medium is then replaced with fresh medium containing the indicated concentrations of TNFα together with 5 μg/ml cycloheximide. Cultures are maintained for a further 18 hours, before measuring apoptosis with crystal violet and reading @570 nm in a plate reader.
Cells are cultured for a further 18 h before staining the remaining adherent cells with crystal violet and measuring absorbance at 570 nm.

[2] = system: primary human neutrophils; assay: Neutrophil survival/viability by MTT assay
Method: primary human neutrophils are isolated and purified from peripheral blood of normal healthy individuals. Neutrophils are resuspended in serum containing culture medium together with various amounts of GM-CSF at a density of 2×10^6/ml, with 100 μl plated into a 96 well plate and cultured for 18 h at 37° C. After this time 10 μl of MTT (5 mg/ml) is added to the cultures and incubated for a further 4 h at 37° C. before solubilisation of the purple coloured formazan with acidic isopropanol. Optical densities are read at 570 nm using a plate reader.
A time course of GM-CSF additions was carried out to neutrophils in order to determine up to what stage GM-CSF can induce survival in neutrophils. primary human neutrophils are isolated and purified from peripheral blood of normal healthy individuals. Neutrophils are resuspended in serum containing culture medium at a concentration of 2×10^6/ml, with 100 μl/well plated into a 96 well plate and culture at 37° C. commenced. At the indicated time points GM-CSF (50U/ml) was added to the neutrophils and culture continued until 20 h post initiation of culture. After this time, 10 μl of MTT (5 mg/ml) was added to the cultures and incubated for a further 4 h at 37° C. before solubilisation of the purple coloured formazan with acidic isopropanol. Optical densities were read at 570 nm using a plate reader. […] However, if administration of the cytokine is delayed for 20 h post isolation, the protective effect is zero in 24 h cultures.
We performed timed additions of anti-GM-CSF antibody to neutrophils in order to determine how immediate the anti-apoptotic effects induced by GM-CSF occur. primary human neutrophils are isolated and purified from peripheral blood of normal healthy individuals. […] Optical densities are read at 570 nm using a plate reader. […]
as §1, with “Following an indicated period of time, 10 μl MTT stock solution (5 mg/mi) is added to each culture being assayed and incubated at 37° C. for 4 h.” left out

[3] = system: primary human neutrophils; assay: Neutrophil gene expression, Incyte LifeGrid microarray
Method: Primary human neutrophils are isolated and purified from peripheral blood of normal healthy individuals. Neutrophils are resuspended in serum containing culture medium together with GM-CSF (50U) at a concentration of 2×10^6/ml, and cultured for 0 h (control), 2 h, 4 h and 6 h at 37° C. After these times, total cellular RNA is extracted and this used as the starting material for analysis of gene expression changes.
Primary human neutrophils are isolated and purified from peripheral blood of normal healthy individuals. Neutrophils are resuspended in serum containing culture medium together with GM-CSF (50U) at a concentration of 2×10^6/ml, and cultured for 0 h (control), 2 h, 4 h and 6 h at 37° C. After these times, total cellular RNA is extracted and this used as the starting material for analysis of gene expression changes using the Incyte “LifeGrid” microarray. Following cluster analysis, a cluster of genes are identified that contained several genes involved in neutrophil survival and whose transcription is up—regulated upon GM-CSF treatment. This cluster, which included BcI2-A1 (a ‘known’ antiapoptotic neutrophil BCL2 family member) is termed the ‘survival’ cluster (See FIG. 14). Among these genes, one group that could be clearly identified are those genes whose protein products are involved in protecting the cell against an increased oxidative environment (FIG. 14). […] Since all these gene products are attenuators of the oxidative cellular response it is indicative that GM-CSF protects the cell by reducing the harmful effects of reactive oxygen species. The corollary therefore is that spontaneous apoptosis must be due to an uncontrolled oxidative environment within the cell. Furthermore, this reaffirms that the neutrophils response to reactive oxidative species is […] of the glutathione system.
Methodology is as described by manufacturer, for Human LifeGrid™ arrays. Essentially, total cellular RNA (1 μg to 20 μg) or polyA+ mRNA (100 ng to 5 μg) is incubated with an oligo (dT) primer. Primed RNA is reverse transcribed to first stand cDNA in a reaction containing M-MLV reverse transcriptase (RT; alternatively Superscript II is used (Life Sciences)), RT buffer, dNTPs and [α-^33P] dCTP (2000-4000 Ci/mmol) at 42° C. for 1 to 5 h.
Methodology is as described by manufacturer, for Human LifeGrid™ arrays.

[4] = GM-CSF (50U), vs control levels

CC(=O)N[C@@H](CS)C(=O)O [NAC]
HeLa cell sensitivity to cisplatin [1]: decreased; also recorded: desensitised towards cisplatin

GM-CSF: well-characterised neutrophil growth/survival factor (cytokine)
relation of survival to GM-CSF concentration (MTT) ([2]; 18 h culture): direct correlation between survival and concentrations of GM-CSF | protective effect when GM-CSF addition is delayed 20 h post isolation ([2]; GM-CSF 50U/ml, 24 h cultures): zero and not sufficient to mediate survival | expression of catalase [3, 4]: increased expression | expression of ferritin [3, 4]: increased expression | expression of mitochondrial superoxide dismutase [3, 4]: increased expression | transcription of fructose 1,6 bisphosphatase ([3]; GM-CSF, 6 hour period): upregulates | transcription of phosphofructokinase 1 ([3]; GM-CSF, 6 hour period): down regulated

CCCCS(=N)(=O)CCC(N)C(=O)O (stereo not shown) [BSO, buthionine sulphoximine]
effect on GM-CSF mediated survival ([2]; BSO 1 or 4 mM, GM-CSF 5 u/ml, 18 h): did not impact on GM-CSF to mediate survival | HeLa cell sensitivity to cisplatin [1]: increase the sensitivity; also recorded: dramatically sensitises HeLa cell towards cisplatin
